Reference: patent US20250090441A1, “ANTI-CARIES PEPTIDES WITH ANTIMICROBIAL AND REMINERALIZING PROPERTIES AND METHODS THEREOF” (THE UNIVERSITY OF HONG KONG, priority 2023, published 2025)
Bridges are numbered along the chain shown (N, C = ends). Where no end group is shown, it is not given here.

Key:
[1] = Remineralizing effects on enamel, chemical pH cycling model (SEM-EDS, Micro-CT, XRD); set-up: species or system human; conditions: 160 μM twice daily, pH cycling 8 days, n = 8; for Calcium to phosphate molar ratio: EDS; for Lesion depth / Mineral loss: Micro-CT
Description: Ten enamel slices were cut from extracted sound human molars. Each slice was separated into four blocks. A total of 40 enamel blocks were prepared. Then the surface of the enamel block was half-covered by an acid-resistant varnish. The exposed half was the experimental surface, and the varnished half was the internal control. Before use, all the enamel blocks were sterilized via autoclave (Niu et al. 2021d; Yu et al. 2018).
The pH-cycling procedure (16 h-demineralization at pH 4.5 and 8 h-remineralization at pH 7.0) was performed to enamel blocks for 8 days. The formula for demineralizing/remineralizing solution was employed from a previous study (Yu et al. 2018). The enamel blocks from the same enamel slice were treated twice daily with 160 μM GAPI (GAPI Group), 160 μM gallic acid (GA Group), 160 μM polyphemusin-I (PI Group), and sterile deionized water (Water Group). All enamel blocks after pH cycling were involved in sequent assessments.
The structure of the enamel surface was examined using SEM (n=8 per group) (Niu et al. 2021d). The elemental analysis of enamel surface was conducted using affiliated energy-dispersive X-ray spectroscopy (EDS). The calcium to phosphorus molar ratio was calculated (Niu et al. 2022). The mineral loss and lesion depth on the enamel blocks were assessed using microcomputed tomography (Micro-CT) (1076, SkyScan, Antwerp, Belgium) (n=8 per group) (Niu et al. 2022). The diffraction patterns of the enamel blocks were evaluated using X-ray diffraction analysis (XRD) (Rigaku SmartLab 9 kW, […]) (n=2 per group) (Yu et al. 2018).

[2] = tested on: Candida albicans, ATCC 90028; type: cell-based; conditions: μM
Description: (§1) The antimicrobial properties of synthesized peptides against bacteria and fungi were evaluated using minimum inhibitory concentration (MIC) and minimum bactericidal/fungicidal concentration (MBC/MFC) tests (Wiegand et al. 2008). The tested species include Streptococcus mutans, UA159; Lacticaseibacillus casei, American Type Culture Collection (ATCC) 334; and Candida albicans, ATCC 90028. A 10 μL aliquot of bacterial culture (10^6 CFU/mL) in brain heart infusion (BHI) broth was added to 100 μL serial two-fold dilutions of experimental solutions. The optical density values at 660 nm were measured after 18 h of incubation. To determine the MBC, 10 μL of bacterial culture was taken from the well of MIC, and wells before and after the well of MIC, and transferred to blood agar. The test protocol for fungi was similar: the culture medium was a Roswell Park Memorial Institute (RPMI) 1640 Medium, the absorbance was measured at 520 nm, and Sabouraud dextrose agar was used for the MFC test. Chlorhexidine and medium were used as the positive and negative controls.

[3] = tested on: Streptococcus mutans, UA159; experiment: MIC and MBC/MFC test; type: cell-based; conditions: Streptococcus mutans (UA159); μM
Description: as §1

[4] = tested on: Lacticaseibacillus casei, ATCC 334; experiment: MIC and MBC/MFC test; type: cell-based; conditions: μM
Description: as §1

Molecule | Calcium to phosphate molar ratio [1] | Lesion depth [1] [μm] | Mineral loss [1] [gHApcm^−3] | MBC/MFC [2] | MIC [2] | MBC/MFC [3] | MIC [3] | MBC/MFC [4] | MIC [4]
O=C(O)c1cc(O)c(O)c(O)c1 [GA, Gallic Acid] | 1.82 ± 0.08 | 62 ± 12 | 0.88 ± 0.24 | – | – | – | – | – | –
Polyphemusin-I (RRWCFRVCYRGFCYRKCR; disulfide 8-13, 4-17) [PI, reference compound] | 1.70 ± 0.06 | 96 ± 9 | 1.32 ± 0.26 | 0.6 | 0.3 | 80 | 20 | 160 | 20
